Experimental data as given in patent US20260199485A1, “RNA DEGRADERS AND USES THEREOF” (Arrakis Therapeutics, Inc., priority 2022, published 2026).

Biological target: T1, CNOT7 (Homo sapiens, UniProt Q9UIV1)
T1 construct: biotin (biotinylated); purchased Ichor Life Sciences
Experiment: Binding of compounds to CNOT7 by surface plasmon resonance (SPR)
Settings: Table 4; dissociation constant for CNOT7
Experimental: Surface plasmon resonance (SPR) was used to evaluate the binding of compounds to CNOT7. Experiments were performed on a Biacore 8K (Cytiva) with a running buffer consisting of 20 mM HEPES pH7.5, 100 mM KCl, 3 mM MgCl2, 1 mM TCEP, 0.05% tween-20, 2% DMSO. Briefly, biotinylated CNOT7 (Ichor Life Sciences) at a concentration of 70 μg/ml was immobilized to a streptavidin coated chip (Cytiva sensor chip SA) for 1200 sec at a flow rate of 5 μl/min (typical immobilization level 7,500 RU). For compound binding experiments, various concentrations of analyte were flowed over the chip with 120 sec association phase, 120 sec dissociation phase, at a flow rate of 30 ul/min and collection rate of 10 Hz. Reference channel subtraction and solvent correction were applied to all sensograms prior to data analysis. Sensograms were fit to 1:1 steady state affinity model. FIGS. 3 and 4 show the binding of exemplary compounds and the AMP control (a known CNOT7 active site binder) at various concentrations to CNOT7.

T1 sequence (Q9UIV1 whole entry): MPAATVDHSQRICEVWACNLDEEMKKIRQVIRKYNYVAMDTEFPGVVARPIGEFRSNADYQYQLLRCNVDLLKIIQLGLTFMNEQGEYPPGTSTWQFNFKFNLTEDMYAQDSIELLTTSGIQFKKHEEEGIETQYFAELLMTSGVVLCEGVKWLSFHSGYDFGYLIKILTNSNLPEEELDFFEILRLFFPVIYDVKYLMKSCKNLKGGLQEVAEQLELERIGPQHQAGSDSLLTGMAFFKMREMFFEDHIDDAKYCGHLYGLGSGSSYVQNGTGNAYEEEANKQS

Kd [µM] | SMILES
> 25 | Cc1c[nH]c(=O)nc1SCC(=O)N(C)Cc1ccc2c(c1)OCO2 [Compound I-6]

Same assay, conditions: Table 5; dissociation constant for CNOT7 by SPR

Kd [µM] | SMILES
> 25 | COc1ccc([C@@H](C)NC(=O)CSc2[nH]c(=O)[nH]c(=O)c2C)cc1 [Compound I-242]
> 25 | COc1ccc(CN(CCO)C(=O)CSc2cc(=O)[nH]cc2C)cc1 [Compound I-287]
1 to 25 | COCC(Sc1nc(=O)[nH]cc1C)C(=O)NCc1ccc(OC)cc1 (stereo not shown) [Compound I-169]
1 to 25 | COc1ccc(CNC(=O)CSc2nc(=O)[nH]cc2C)nc1 [Compound I-42]
1 to 25 | COCC(Sc1nc(=O)[nH]cc1C)C(=O)NC(C)c1ccc(OC)cc1 (stereo not shown) [Compound I-266]
1 to 25 | COCCOCC[C@H](Sc1nc(=O)[nH]cc1C)C(=O)NCc1ccc(OC)cc1 [Compound I-167, (2S)-4-(2-methoxyethoxy)-N-[(4-methoxyphenyl)methyl]-2-[(5-methyl-2-oxo-1H-pyrimidin-4-yl)sulfanyl]butanamide]
1 to 25 | COc1ccc(C2(NC(=O)CSc3nc(=O)[nH]cc3C)CC2)cc1 [Compound I-197]
1 to 25 | COc1ccc([C@@H](C)NC(=O)CSc2nc(=O)[nH]cc2F)cc1 [Compound I-228]
> 25 | COc1ccc(CNC(=O)CSc2nc(=O)[nH]cc2C)cn1 [Compound I-43]
> 25 | COc1ccc(C(C)NC(=O)C2CC2c2nc(=O)[nH]cc2C)cc1 (mixture of isomers) [Compound I-239]
1 to 25 | Cc1c[nH]c(=O)nc1SCC(=O)NC(C)c1ccc(S(C)(=O)=O)cc1 (stereo not shown) [Compound I-294]
> 25 | Cc1c[nH]c(=O)nc1SCC(=O)NCc1ccc2oc(=O)[nH]c2c1 [Compound I-51]
1 to 25 | Cc1c[nH]c(=O)nc1SCC(=O)NCc1ccc2c(c1)CC(=O)N2 [Compound I-56]
1 to 25 | COc1ccc([C@@H](C)NC(=O)CSc2nc(=O)[nH]cc2C)cc1 [Compound I-247]
0.1 to 1 | COc1ccc(C2(NC(=O)CSc3nc(=O)[nH]cc3Cl)CC2)cc1F [Compound I-307]
> 25 | COc1ccc(CN2CCC(Sc3nc(=O)[nH]cc3C)C2=O)cc1 (stereo not shown) [Compound I-252]

Kd [µM] | SMILES
1 to 25 | COc1ccc(C(CO)NC(=O)CSc2nc(=O)[nH]cc2C)cc1 (stereo not shown) [Compound I-46]
1 to 25 | CC[C@@H](NC(=O)CSc1nc(=O)[nH]cc1C)c1ccc(OC)cc1 [Compound I-217]
1 to 25 | COCC(Sc1nc(=O)[nH]cc1C)C(=O)NC(C)c1ccc2c(c1)CC(=O)N2 (stereo not shown) [Compound I-192]
> 25 | COc1ccc(CNC(=O)COc2nc(=O)[nH]cc2C)cc1 [Compound I-31]
> 25 | COc1ccc(C(C)NC(=O)C2CC2c2nc(=O)[nH]cc2C)cc1 (mixture of isomers) [Compound I-240]
1 to 25 | COc1ccc([C@H](NC(=O)CSc2nc(=O)[nH]cc2C)C(C)C)cc1 [Compound I-218]
1 to 25 | COc1ccc(C(C)(C)NC(=O)CSc2nc(=O)[nH]cc2C)cc1 [Compound I-249]
1 to 25 | Cc1c[nH]c(=O)nc1SCC(=O)NCc1ccc2c(c1)NC(=O)C2 [Compound I-57]
> 25 | COc1ccc(CNC(=O)CNc2nc(=O)[nH]cc2C)cc1 [Compound I-32]
1 to 25 | COc1ccc([C@@H](C)NC(=O)CSc2nc(=O)[nH]cc2Cl)cc1F [Compound I-306]
1 to 25 | COc1ccc([C@H](NC(=O)CSc2nc(=O)[nH]cc2C)C(F)(F)F)cc1 [Compound I-221]
1 to 25 | COCCOCC[C@@H](Sc1nc(=O)[nH]cc1C)C(=O)NCc1ccc(OC)cc1 [Compound I-166, (2R)-4-(2-methoxyethoxy)-N-[(4-methoxyphenyl)methyl]-2-[(5-methyl-2-oxo-1H-pyrimidin-4-yl)sulfanyl]butanamide]
> 25 | Cc1c[nH]c(=O)cc1SCC(=O)NCc1ccc2c(c1)NC(=O)CO2 [Compound I-52]
1 to 25 | COc1ccc(CNC(=O)CCc2nc(=O)[nH]cc2C)cc1 [Compound I-34]
1 to 25 | C[C@@H](NC(=O)CSc1nc(=O)[nH]cc1Cl)c1ccc(Cl)c(F)c1 [Compound I-314]

Same assay, conditions: Table 6; dissociation constant for CNOT7 by SPR

SMILES | Kd [µM]
COc1ccc([C@](C)(CO)NC(=O)CSc2nc(=O)[nH]cc2C)cc1 [Compound I-250] | 1 to 25
COc1ccc2c(c1)CCN(C(=O)CSc1nc(=O)[nH]cc1C)[C@@H]2C [Compound I-199] | 0.1 to 1
COc1ccc([C@@H](C)NC(=O)[C@@H](CCOCCOCCOCCN=[N+]=[N-])Sc2cc[nH]c(=O)n2)cc1 [Compound I-261] | 1 to 25
COc1ccc([C@@H](C)NC(=O)CSc2nc(=O)[nH]cc2Cl)cc1 [Compound I-229] | 1 to 25
COCCOC[C@H](Sc1nc(=O)[nH]cc1C)C(=O)N[C@H](C)c1ccc(OC)cc1 [Compound I-173] | 1 to 25
COc1ccc(C(C)NC(=O)CSc2nc(=O)[nH]cc2C)cc1F (stereo not shown) [Compound I-244] | 1 to 25
COc1cc(F)c([C@@H](C)NC(=O)CSc2nc(=O)[nH]cc2Cl)cc1F [Compound I-311] | 1 to 25
Cc1c[nH]c(=O)nc1SCC(=O)NCc1ccc2c(c1)COC2 [Compound I-58] | > 25

Next, values leading:

Kd [µM] | SMILES
1 to 25 | COc1cc(F)c([C@@H](C)NC(=O)CSc2nc(=O)[nH]cc2Cl)c(F)c1 [Compound I-312]
1 to 25 | COC[C@H](Sc1nc(=O)[nH]cc1C)C(=O)N[C@@H](C)c1ccc2c(c1)CC(=O)N2 [Compound I-325]

Same assay, conditions: dissociation constant by SPR, Table 7

Kd [µM] | SMILES
1 to 25 | COc1ccc([C@@H](C)NC(=O)[C@@H](COCCOCCOCCN=[N+]=[N-])Sc2nc(=O)[nH]cc2C)c(F)c1 [Compound I-367]
> 25 | COc1ccc(CNC(=O)[C@@H](CCOCCOCCOCCN=[N+]=[N-])Sc2nc(=O)[nH]cc2Cl)c(F)c1 [Compound I-401]
> 25 | COc1ccc2c(c1)C[C@@H](COCCOCCOCCOCCN=[N+]=[N-])N(C(=O)CSc1nc(=O)[nH]cc1Cl)C2 [Compound I-415]
1 to 25 | COc1ccc(CNC(=O)[C@H](CCOCCOCCOCCN=[N+]=[N-])Sc2nc(=O)[nH]cc2Cl)c(F)c1 [Compound I-402]
> 25 | COc1cc(F)c2c(c1)CCN(C(=O)CSc1nc(=O)[nH]cc1Cl)C2 [Compound I-440]
1 to 25 | C#CCOCCOCCOCCOC[C@@H]1Cc2cc(OC)ccc2[C@H](C)N1C(=O)CSc1nc(=O)[nH]cc1Cl [Compound I-482]
> 25 | [N-]=[N+]=NCCOCCOCCOCC[C@@H](Sc1nc(=O)[nH]cc1Cl)C(=O)NCc1ccc2c(c1)CC(=O)N2 [Compound I-409]
> 25 | CC#CCNC(=O)CCC(Sc1nc(=O)[nH]cc1C)C(=O)NCc1ccc(OC)cc1 (stereo not shown) [Compound I-492]
1 to 25 | COCCNC(=O)CCC(Sc1nc(=O)[nH]cc1C)C(=O)NCc1ccc(OC)cc1 (stereo not shown) [Compound I-490]
1 to 25 | Cc1c[nH]c(=O)nc1S[C@@H](COCCOCCOCCN=[N+]=[N-])C(=O)NCc1ccc2c(c1)CC(=O)N2 [Compound I-408]
1 to 25 | COc1ccc([C@@H](C)NC(=O)[C@@H](CCOCCOCCOCCN=[N+]=[N-])Sc2nc(=O)[nH]cc2C)c(F)c1 [Compound I-378]
1 to 25 | COC[C@H](Sc1nc(=O)[nH]cc1C)C(=O)NCc1ccc2c(c1)CC(=O)N2C [Compound I-412]
1 to 25 | COc1ccc2c(c1)C[C@H](COCCOCCOCCOCCN=[N+]=[N-])N(C(=O)CSc1nc(=O)[nH]cc1Cl)C2 [Compound I-416]
1 to 25 | COC[C@@H](Sc1nc(=O)[nH]cc1Cl)C(=O)N[C@H](C)c1ccc2c(c1)CC(=O)N2 [Compound I-333]
> 25 | [N-]=[N+]=NCCOCCOCCOCC[C@H](Sc1nc(=O)[nH]cc1Cl)C(=O)NCc1ccc2c(c1)CC(=O)N2 [Compound I-410]
1 to 25 | COCCOCC[C@@H](Sc1nc(=O)[nH]cc1C)C(=O)NCc1ccc(OC)cc1 [Compound I-444]
1 to 25 | COc1ccc2c(c1)C[C@H](COCCOCCOCCOCCN=[N+]=[N-])N(C(=O)CSc1nc(=O)[nH]cc1Cl)[C@@H]2C [Compound I-428]
1 to 25 | COCCOCC#CC[C@H](Sc1nc(=O)[nH]cc1C)C(=O)NCc1ccc(OC)cc1 [Compound I-502]
1 to 25 | COC[C@H](Sc1nc(=O)[nH]cc1C)C(=O)N[C@@H](C)c1ccc2c(c1)CC(=O)N2 [Compound I-325]
1 to 25 | C#CCOCCOCCOCCOC[C@H]1CN(C(=O)CSc2nc(=O)[nH]cc2Cl)[C@@H](C)c2ccc(OC)cc21 [Compound I-493]
> 25 | COc1ccc(C(C)NC(=O)C(CCOCCOCCOCCn2cc(CCc3ccc(NC(=O)Nc4nc(CC(=O)N5CCN(C)CC5)cs4)cc3)nn2)Sc2nc(=O)[nH]cc2Cl)c(F)c1 (stereo not shown) [Compound I-384]
1 to 25 | C#CCOCCOCCOCC(Sc1nc(=O)[nH]cc1Cl)C(=O)NC(C)c1ccc(OC)cc1F (stereo not shown) [Compound I-342]
1 to 25 | COc1ccc2c(c1)CCN(C(=O)CSc1nc(=O)[nH]cc1Cl)C2 [Compound I-431]
> 25 | COc1ccc2c(c1)CCN(C(=O)[C@@H](COCCOCCOCCN=[N+]=[N-])Sc1nc(=O)[nH]cc1C)[C@@H]2C [Compound I-421, 4-[(1R)-1-[2-[2-(2-azidoethoxy)ethoxy]ethoxymethyl]-2-[(1R)-6-methoxy-1-methyl-3,4-dihydro-1H-isoquinolin-2-yl]-2-oxo-ethyl]sulfanyl-5-methyl-1H-pyrimidin-2-one]
1 to 25 | COc1ccc([C@@H](C)NC(=O)[C@@H](CCOCCOCCOCCN=[N+]=[N-])Sc2nc(=O)[nH]cc2Cl)c(F)c1 [Compound I-349]
